* marks the point of attachment. Acm = CC(=O)NC*
Assays:
Jurkat cell line = experiment: In vitro transfection with pRSVLuc (luciferase) condensed on peptides; type: cell-based; details: peptide 2 μg/μg plasmid DNA, luciferase after 24 h, FIG. 7
Protocol: After incubation the cells are lysed and are assayed for gene expression. In the case of the luciferase reporter gene, luciferin and ATP are added to lysed cells and the light emitted is measured with a luminometer (see deWet et al., supra).
Cell lines such as Jurkat and K562 grow in suspension and can be transfected and the level of transgene expression (luciferase activity) determined b) the following method. Cells are harvested on the day of assay by centrifugation at 1200 rpm for 5 mins at room temperature. The cell pellet is resuspended in phosphate buffered saline and re-centrifuged. This operation is performed twice. […] The cells are then aliquoted into tubes and 0.75 ml of RPMI medium added, followed by 0.04-0.08 ml of 100 mM Chloroquine and finally 0.25 ml of DNA-complex solution. The transfection is then allowed to proceed by incubating the cells at 37° C. for 4 h. After this time the cells are harvested by centrifugation at 2000 rpm. The cells are then suspended in 1 ml of RPMI medium and re-centrifuged. Finally the cells are suspended in 0.5 ml RPMI medium containing 10% foetal bovine serum. Each 0.5 ml of transfected cell suspension is transferred to a well of a 12 well plastic culture plate containing 1.5 ml of RPMI 10% FBS. The original transfection tube is rinsed with a further 1 ml of medium and the wash transferred to the culture dish making a final volume of 3 ml. The culture plate is then incubated at 37° C. for 24-90 h in an atmosphere of 5% CO2. The contents of each well in the culture dish are transferred to centrifuge tubes and the cells collected by centrifugation at 13000 rpm. The pellet is resuspended in 0.12 ml of Lysis Buffer (100 mM sodium phosphate, pH 7.8; 8 mM magnesium chloride, 1 mM EDTA; 1% Triton X-100 and 15% glycerol) and agitated with a pipette. The lysate is centrifuged at 13000 rpm for 1 min and the supernatant collected. 80 μl of the supernatant are transferred to a luminometer tube. The luciferase activity is then assayed using a Berthold Lumat L9501 luminometer. The assay buffer used is Lysis Buffer containing 10 mM Luciferin and 100 mM ATP. Light produced by the luciferase is integrated over 4s and is described as relative light units (RLU). The data are converted to RLU/ml of lysate, RLU/cell or RLU/mg protein (protein concentration of the lysate having been determined in this case by the BioRAD Lowry assay.
In order to compare the relative efficiency of transfection of complexes composed of different NBC condensation peptides or poly-L-lysine, pRSVLuc DNA at a concentration of 100 μg/ml was condensed using peptide at a ratio of 2 μg/μg plasmid DNA as described herein with the following deviation: prior to addition to the cells (Jurkat cell line) the complexes were diluted to 20 μg/ml with 10% PEG 10 000; 37 mM sodium chloride; 25 mM sodium phosphate, pH 7.4. The cells were assayed for luciferase after 24 h.

[1] = system: KLN-205 squamous epithelial syngenic tumour cells; experiment: In vivo transfection of KLN-205 tumours in DBA2 mice by local injection of peptide/plasmid complexes (nitroreductase immunostaining); design: species or system mouse; details: for ranking by numbers of transfected tumor cells (most to least efficient): 0.5 μg peptide/μg DNA, intratumoural injection
Protocol: A representative in via cell transfection system is transfection of tumor cells using a murine carcinoma model.
The murine carcinoma model DBA2 containing the squamous epithelial syngenic tumour cell line KLN-205 was prepared as described in the Examples. A transfecting complex was prepared using a solution of plasmid DNA encoding a reporter gene or, for example, nitroreductase and a selected NBC peptide 0.5 μg peptide/μg DNA, as described herein. Where desired, a conjugate peptide was added to the transfecting complex, at a concentration of 0.1-0.3 μg […] peptide/μg DNA.
Transfection efficiency may be determined in a number of ways, including assessing the effect of the reporter gene on the target tissue, or by quantitating the gene product. Below, tissues samples were obtained and nitroreductase gene expression was ascertained via staining of tissue sections.
The ability to transfect tumor cells in vivo in mice was tested using plasmid nucleic acid carrying the nitroreductase reporter gene condensed on each of the following peptides: NBC15, NBC8, NBC9, NBC11, NBC7.
DBA2--male mice, aged 5-10 weeks were injected subcutaneously in each flank with a squamous epithelial syngenic tumour cell line KLN-205. The cell line was grown up in 175 ml T-flasks in standard EMEM medium containing 10% foetal calf serum. When the cells reached a density of 4×10^6 they were suspended by a standard trypsinization technique, washed in PBS and diluted to a final concentration of […].
The anaesthetic was Enflurane (Alynane; Anaquest, Ltd., Windlesham, Surrey UK): Ketamine (10% Ketaset, Willows Francis Veterinary, Cramley, West Sussex, UK); Rompun (2%, Bayer UK, Ltd., Suffolk, UK). For 10 ml anaesthetic mixture: 8.5 ml PBS; 1 ml Ketamine; 0.5 ml Rompun. Each animal was injected intra-peritoneally with 200 μl/animal using 1 ml syringe with 25 gauge needle. Once anaesthetized, the tumour is manipulated between the fingers lifting it slightly away from the animal's body and at the same time apply minimum pressure to the tumour. Using a 0.5 ml insulin needle the formulated delivery vehicle (a plasmid containing the E. coli nitroreductase gene condensed on a peptide at a ratio of 0.5 μg peptide/μg DNA) to be injected is taken up and the tumour is injected horizontally trying to avoid any visible blood vessels and necrotic or abnormal tissue. Daily monitoring is continued until the experiment is terminated.
7μ sections of frozen tumour tissue are prepared using standard methods and a Cryostat and air dried. Sections are fixed with freshly prepared 4% PFA/PBS for 30 mins at room temperature and then washed twice with 0.01% Tween-20/PBS 5 mins each wash. Sections are then immersed in 0.25% hydrogen peroxide/PBS, at room temperature (20C.) for 30 mins, and then washed three times in 0.01% Tween 20/PBS for 5 mins each wash. Sections are then permeabilised by treatment with ice cold 0.1 % TRITON X-100 for 5 mins, followed by a further two washes in 0.01% Tween-20/PBS 5mins each wash. The sections are then blocked with 5% NGS/PBS 60mins at room temperature in a wetbox. After decanting the blocking solution, 0.5 ml diluted antiserum/slide (1:400 in 2.5% NGS) is added and the sections incubated for 60 mins at room temperature. Slides are then washed three times in 0.01% Tween-20/PBS 5 mins each wash. Secondary antibody (0.5 ml) from ABC Elite Vector stain kit is added as follows and incubated 30 mins at room temperature in a wetbox.
The tumour is a murine syngenic squamous carcinoma produced by subcutaneous injection of KLN205 cells. When the tumours were approximately 4 mm in diameter they were injected with 20 μl of plasmid DNA formulated with the NBC15 peptide. After 48 h the tumours were excised and sectioned by standard histological techniques and immunostained for expression of the transgene (E. coli nitroreductase). […] In this case the tumours were injected with the same plasmid formulated in 0.5 μg NBC9 peptide/μg DNA.

| Substance | rank in order of relative transfection efficiency (most to least efficient) (Jurkat cell line) | ranking by numbers of transfected tumor cells (most to least efficient) [1] | transfection efficiency on direct injection within a localized area ([1]; in vivo, direct injection, e.g. a tumour) |
| --- | --- | --- | --- |
| NH2-KKSPKKAKKPAAKKSPKKAKKPAYC(Acm)-COOH (H-KKSPKKAKKPAAKKSPKKAKKPAYC(Acm)-OH; SMILES CC(=O)NCSC[C@H](NC(=O)[C@H](Cc1ccc(O)cc1)NC(=O)[C@H](C)NC(=O)[C@@H]1CCCN1C(=O)[C@H](CCCCN)NC(=O)[C@H](CCCCN)NC(=O)[C@H](C)NC(=O)[C@H](CCCCN)NC(=O)[C@H](CCCCN)NC(=O)[C@@H]1CCCN1C(=O)[C@H](CO)NC(=O)[C@H](CCCCN)NC(=O)[C@H](CCCCN)NC(=O)[C@H](C)NC(=O)[C@H](C)NC(=O)[C@@H]1CCCN1C(=O)[C@H](CCCCN)NC(=O)[C@H](CCCCN)NC(=O)[C@H](C)NC(=O)[C@H](CCCCN)NC(=O)[C@H](CCCCN)NC(=O)[C@@H]1CCCN1C(=O)[C@H](CO)NC(=O)[C@H](CCCCN)NC(=O)[C@@H](N)CCCCN)C(=O)O) [NBC8] | NBC11>NBC13>NBC8>>NBC15>>>polylysine | NBC15>NBC8, NBC9, NBC11>NBC7>>>poly-lysine | optimal transfection efficiency |
| NH2-TKKAWKKAEKKAAKKCGVSAKKAAKKAWKKA-CONH2 (H-TKKAWKKAEKKAAKKCGVSAKKAAKKAWKKA-NH2) [NBC11] | NBC11>NBC13>NBC8>>NBC15>>>polylysine | NBC15>NBC8, NBC9, NBC11>NBC7>>>poly-lysine | – |

Reference: US6218112A, “Optimization of gene delivery and gene delivery system” (Cobra Therapeutics Limited, priority 1997, dated 2001)
